“And” between values parts separate entries of the source, which are not always exact repeats. Equal values may be shown once.
Tests used:
human sdLDL [1] = assay: Copper-induced sdLDL oxidation with fatty acids, TBARS/MDA (Example 14); format: biochemical; details: 1.0 μM; for effect on lipoprotein oxidation compared to vehicle / inhibition of lipoprotein oxidation versus vehicle: 40 minutes; for effect on oxidation: 60 minutes
Procedure: Venous blood was collected from healthy volunteers into vacutainer tubes. Plasma was separated by centrifugation at 3000 g for 25 min at 4° C. and adjusted to a density of 1.020 g/mL with KBr. sdLDL was isolated from the plasma of healthy volunteers by iodixanol density gradient ultracentrifugation and adjusted to a final apolipoprotein concentration of 2 mg/mL. An aliquot of sdLDL (50 μL) was incubated with either 10 μL vehicle (ethanol) or 10 μL FA (EPA, ETE, AA, EA, DHA, DPA, ALA, LA or SA) treatment stock solution (100 μM) for 30 min at 37° C. Oxidation was initiated with addition of initiator CuSO4 (10.0 μM). At certain time points (0, 40, 60, and 120 minutes), […] were removed from each subfraction and combined with 1.0 mL thiobarbituric acid (0.5%), 10 μL trichloroacetic acid (10%), 10 μL butylated hydroxytoluene (BHT; 35 mM in ethanol), and 10 μL ethylenediaminetetraacetic acid (EDTA; 5 mM). Sample aliquots were incubated at 100° C. for 30 min and then assayed for the formation of thiobarbituric acid reactive substances (TBARS), which have a molar absorptivity (ε) value of 1.56×105 M^−1 cm^−1 at 532 nm and are largely derived from the reaction of thiobarbituric acid with MDA, a reactive aldehyde produced by sdLDL oxidation. Sample TBARS concentrations were determined spectrophotometrically by measuring sample absorbances against a standard curve derived from the hydrolysis of 1,1,3,3-tetramethoxypropane.

[2] = Membrane cholesterol domain structural integrity, x-ray diffraction (Example 9); details: D/P mole ratio 1:30, C/P 1.5:1
Procedure: Multilamellar vesicles (MLVs) were prepared as binary mixtures that include palmitoyloleoylphosphatidylcholine (POPC) (1.0 mg total phospholipid per sample) and cholesterol at an elevated cholesterol-to-phospholipid (C/P) mole ratio of 1.5:1. […] Samples were shell-dried under nitrogen gas and placed under vacuum for 3 hours to remove residual solvent at room temperature. After desiccation, each sample was resuspended in saline buffer (0.5 mM HEPES, 154 mM NaCl, pH 7.3) to yield a final phospholipid concentration of 2.5 mg/mL. Lipid suspensions were then vortexed for 3 minutes at ambient temperature to form MLVs.
Briefly, a 100 μL aliquot of each MLV preparation (containing 250 μg MLV) was transferred to a Lucite® sedimentation cell fitted with an aluminum foil substrate designed to collect MLVs into a single membrane pellet upon centrifugation. Samples were then loaded into a Sorvall AH-629 swinging bucket rotor (DuPont Corp., Wilmington, Del.) and centrifuged at 35,000 g, 5° C., for 90 minutes.
After centrifugal orientation, sample supernatants were aspirated and aluminum foil substrates, each supporting a single membrane pellet, were removed from the sedimentation cells. Sample pellets were dried for 5-10 minutes at ambient conditions, mounted onto curved glass supports, and placed in hermetically-sealed, brass or glass containers (for immediate analysis or temporary storage, respectively). All x-ray diffraction experiments were conducted at 20° C., 74% relative humidity. The latter was established by exposing membrane samples to saturated solutions of […] (K2C4H4O6.½H2O) for at least 1 hour prior to experimental analysis.
Oriented membrane samples were aligned at grazing incidence with respect to a collimated, mono-chromatic CuKα x-ray beam (Kα1 and Kα2 unresolved; λ=1.54 Å) produced by a Rigaku Rotaflex RU-200, high-brilliance microfocus generator (Rigaku-MSC, The Woodlands, Tex.) as previously described (Mason et al., Biophys. J., vol. 55(4), pages 769-778 (1989)). The samples were initially subjected to x-ray diffraction analysis at least 12 hours after formation of the membrane pellets and retested for up to several days. Analytical x-rays were generated by electron bombardment of a rotating copper anode and are filtered through a thin nickel foil to provide monochromatic radiation (λ=1.54 Å). Collimation of the x-ray beam was achieved using a single Franks mirror. Diffraction data were collected on a one-dimensional, position-sensitive electron detector (Hecus X-ray Systems, Graz, Austria) at a sample-to-detector distance of 150 mm from the sample site.
The d-space for any given membrane multi bilayer is a measurement of the unit cell periodicity of the membrane lipid bilayer (e.g., the distance from the center of one lipid bilayer to the next including surface hydration), and is calculated from Bragg's Law, hλ=2d sin θ, where h is the diffraction order, λ is the wavelength of the x-ray radiation (1.54 Å), d is the membrane lipid bilayer unit cell periodicity, and θ is the Bragg angle equal to one-half the angle between the incident beam and scattered beam.
The presence of cholesterol domains in a given membrane sample results in the production of distinct Bragg (diffraction) peaks having singular periodicity values of 34 and 17 Å (typically referred to as first- and second-order cholesterol domain peaks). Under the specific temperature and relative humidity conditions established for these experiments, the second-order, 17 Å cholesterol domain peak was well-delineated from other, neighboring cholesterol and phospholipid diffraction peaks and was thus used to quantitate relative cholesterol domain peak intensity. Routines written in Origin 8.6 (OriginLab Corporation, Northampton, Mass.) were used to determine total peak area (associated with all diffraction peaks in a given pattern) against which the second-order cholesterol domain peak was normalized.

[3] = LOOH formation in membrane vesicles, fatty acid comparison (Example 16); format: biochemical; details: 5 μM; 0.1 μM copper sulfate, 48 hours
Procedure: Iodometric approaches were used to measure in vitro LOOH formation in membrane vesicles reconstituted as binary mixtures of cholesterol and dilinoleoyl phosphatidylcholine. Vesicles were prepared at a cholesterol-to-phospholipid mole ratio of 0.6:1 and subjected to autoxidation (e.g., lipid oxidation) at 37° C. Lipid oxidation was stimulated with 0.1 μM copper sulfate for 48 hours. All FAs were delivered at 5 and 10 μM.

human LDL = assay: Copper-induced oxidation of unfractionated LDL, TBARS (Example 7); format: biochemical; details: 10 μM; 1 hour
Procedure: An experiment to study the antioxidant effect of EPA in LDL and small dense LDL (“sdLDL”) was performed. LDL and sdLDL were isolated from the plasma of healthy volunteers by iodixanol density gradient ultracentrifugation, and adjusted to a final apolipoprotein concentration of 2 mg/mL. […] Vitamin E was also incubated with sample aliquots as a positive control.

human sdLDL [4] = assay: Copper-induced sdLDL oxidation, TBARS (Example 7); format: biochemical; details: 10 μM; 1 hour
Procedure: An experiment to study the antioxidant effect of EPA in LDL and small dense LDL (“sdLDL”) was performed. LDL and sdLDL were isolated from the plasma of healthy volunteers by iodixanol density gradient ultracentrifugation, and adjusted to a final apolipoprotein concentration of 2 mg/mL. […] Lipid oxidation was initiated with 10 μM CuSO4 and monitored by the colorimetric detection of thiobarbituric acid reactive substances (TBARS) for 1 hr. Vitamin E was also incubated with sample aliquots as a positive control.

human sdLDL [5] = assay: Glucose-induced sdLDL oxidation, MDA/TBARS (Example 10); format: biochemical; details: 10 μM; glucose 200 mg/dL; 1 hr
Procedure: Vitamin E (α-tocopherol) purchased from Sigma-Aldrich was prepared in ethanol at 1.0 mM (ε=3.06×10^4M^−1 cm^−1 at 294 nm) prior to experimental use. Test compounds were further diluted in ethanol or aqueous buffer as needed. Phosphate Buffered Saline (PBS) purchased from Sigma-Aldrich was prepared in double distilled water at 10 mM (138 mM NaCl, 2.7 mM KCl, pH 7.4). Glucose prepared in PBS was added to test samples to achieve a final concentration of 11.0 mM (200 mg/dL).
LDL and sdLDL were isolated from the plasma of healthy volunteers by iodixanol density gradient ultracentrifugation and adjusted to a final apolipoprotein concentration of 10 mg/mL. […] Sample aliquots were incubated at 100° C. for 30 minutes and then assayed for the formation of thiobarbituric acid-reactive substances (TBARS), having a molar absorptivity (ε) value of 1.56×10^5 M^−1 cm^−1 at 532 nm and were derived principally from the reaction of thiobarbituric acid with malondialdehyde (MDA). Lipid oxidation was measured by the colorimetric detection of malondialdehyde (MDA), a marker of oxidative stress.

| Molecule | effect on lipoprotein oxidation compared to vehicle (human sdLDL [1]) | MDA Equivalents (Mean ± SD) (human sdLDL [1]; time point 0 min) | MDA Equivalents (Mean ± SD) (human sdLDL [1]; time point 40 min) | MDA Equivalents (Mean ± SD) (human sdLDL [1]; time point 60 min) | MDA Equivalents (Mean ± SD) (human sdLDL [1]; time point 120 min) | % change Vs control (cholesterol domain peak intensity) [2] | Relative Cholesterol Domain Peak Intensity [2] | also measured |
| --- | --- | --- | --- | --- | --- | --- | --- | --- |
| CCCCCCCCCCCCCCCCCC(=O)O [SA, stearic acid] | did not completely inhibit oxidation compared to vehicle | 0.78 ± 0.01 µM | 10.60 ± 0.21 µM | 12.07 ± 0.23 µM | 12.33 ± 0.10 µM | – | – | – |
| CCCCC/C=C\C/C=C\C/C=C\C/C=C\CCCC(=O)O [AA, arachidonic acid] | failed to inhibit lipoprotein oxidation | 0.67 ± 0.06 µM | 10.89 ± 0.35 µM | 11.86 ± 0.46 µM | 12.88 ± 0.60 µM | −45.2% and −46.8 ± 15.2% | 22.5 ± 4.3 | – |
| CC/C=C\C/C=C\C/C=C\CCCCCCCC(=O)O [ALA, α-linolenic acid] | – | 0.40 ± 0.06 µM | 8.91 ± 0.24 µM | 11.48 ± 0.18 µM | 12.94 ± 0.40 µM | −46.8% and −45.2 ± 11.3% | 23.2 ± 0.6 | reduction of LOOH levels compared to the vehicle [3]: 27%; inhibition of lipoprotein oxidation versus vehicle (human sdLDL [1]): 16% and 15%; effect on oxidation (human sdLDL [1]): failed to inhibit oxidation at 60 minutes |
| CCCCC/C=C\C/C=C\CCCCCCCC(=O)O [LA, linoleic acid] | did not completely lipoprotein oxidation | 0.57 ± 0.12 µM | 10.74 ± 0.27 µM | 11.89 ± 0.30 µM | 12.55 ± 0.78 µM | – | – | – |
| CC1(C)[C@@H](O[C@H]2O[C@H](C(=O)O)[C@@H](O)[C@H](O)[C@H]2O[C@@H]2O[C@H](C(=O)O)[C@@H](O)[C@H](O)[C@H]2O)CC[C@]2(C)[C@H]3C(=O)C=C4[C@@H]5C[C@@](C)(C(=O)O)CC[C@]5(C)CC[C@@]4(C)[C@]3(C)CC[C@@H]12 [glycyrrhizin] | – | – | – | – | – | −54.9 ± 12.3% | 19.1±1.2 | reduction in cholesterol domain peaks compared to vehicle [2]: 54.9%; Relative Cholesterol Domain Peak Intensity ([2]; listed as Glyc): 19.1 ± 1.2 |
| Cc1ccc(C)c(OCCCC(C)(C)C(=O)O)c1 [gemfibrozil] | – | – | – | – | – | 11% | 46.9±12.6 | effect on unfractionated LDL oxidation (human LDL): no significant effect on unfractionated LDL oxidation; % change Vs control (cholesterol domain peak intensity) ([2]; listed as Gemfib): −10.9 ± 43.3%; Relative Cholesterol Domain Peak Intensity ([2]; listed as Gemfib): 46.9 ± 12.6; effect on sdLDL oxidation compared to vehicle-treated controls (human sdLDL [4]): no significant effect on sdLDL oxidation; effect on glucose-induced sdLDL oxidation (human sdLDL [5]): did not inhibit glucose-induced sdLDL oxidation |
| O=C(O)c1cccnc1 [niacin, nicotinic acid] | – | – | – | – | – | −35% | 27.5±12.2 | effect on unfractionated LDL oxidation (human LDL): no significant effect on unfractionated LDL oxidation; % change Vs control (cholesterol domain peak intensity) ([2]; listed as Niacin): −35.0 ± 30.8%; Relative Cholesterol Domain Peak Intensity ([2]; listed as Niacin): 27.5 ± 12.2; effect on sdLDL oxidation compared to vehicle-treated controls (human sdLDL [4]): no significant effect on sdLDL oxidation; effect on glucose-induced sdLDL oxidation (human sdLDL [5]): did not inhibit glucose-induced sdLDL oxidation |
| CCCCCCCCCCCCCCCCCCCC(=O)O [EA, eicosanoic acid] | did not completely inhibit oxidation compared to vehicle | 1.06 ± 0.09 µM | 11.27 ± 0.28 µM | 11.65 ± 0.65 µM | 13.22 ± 0.68 µM | – | – | – |
| eicosatrienoic acid [ETE] | – | 0.40 ± 0.11 µM | 7.19 ± 0.43 µM | 10.90 ± 0.28 µM | 12.57 ± 0.15 µM | – | – | reduction of LOOH levels compared to the vehicle [3]: 36%; inhibition of lipoprotein oxidation versus vehicle (human sdLDL [1]): 32%; effect on oxidation (human sdLDL [1]): failed to inhibit oxidation at 60 minutes |
| CCCCCCCC/C=C\CCCCCCCC(=O)O [OA, oleic acid] | did not completely lipoprotein oxidation | 0.78 ± 0.13 µM | 10.98 ± 0.36 µM | 12.00 ± 0.19 µM | 12.57 ± 0.38 µM | – | – | – |

Source: US20190209506A1, “METHODS OF REDUCING OR PREVENTING OXIDATION OF LDL OR LIPID MEMBRANES IN A SUBJECT IN NEED THEREOF” (Amarin Pharmaceuticals Ireland Limited, priority 2018, published 2019)
